Measured values from ChEMBL document CHEMBL1201862, “PubChem BioAssay data set” (2004).
Calls of active or inactive are those of the source.

Experiments:
[1] = HepG2 cell cytotoxicity, dose response, cytotoxicity control for non-replicating M. tuberculosis project (AID 489018); assay type: functional; conditions: Mycobacterium tuberculosis
A-375 = experiment: proliferation inhibition in MITF-low A375 cells – cell-based, cherry-pick samples, set 2, counter-screen for MITF modulator project, dose response (AID 540335); assay type: functional; conditions: Homo sapiens
[2] = viability of HCT116 lacking mutant beta-catenin – cell-based, human colon tumor, dose response (AID 1045); assay type: functional;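 also: HCT116 colon tumor cells with beta catenin knocked out; cells exposed to compound for 60 hours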
cells = assay type: functional
[3] = target: T1, DNA repair protein RAD52 homolog (Homo sapiens, UniProt P43351); assay type: functional, biochemical
T1 sequence (P43351 whole entry): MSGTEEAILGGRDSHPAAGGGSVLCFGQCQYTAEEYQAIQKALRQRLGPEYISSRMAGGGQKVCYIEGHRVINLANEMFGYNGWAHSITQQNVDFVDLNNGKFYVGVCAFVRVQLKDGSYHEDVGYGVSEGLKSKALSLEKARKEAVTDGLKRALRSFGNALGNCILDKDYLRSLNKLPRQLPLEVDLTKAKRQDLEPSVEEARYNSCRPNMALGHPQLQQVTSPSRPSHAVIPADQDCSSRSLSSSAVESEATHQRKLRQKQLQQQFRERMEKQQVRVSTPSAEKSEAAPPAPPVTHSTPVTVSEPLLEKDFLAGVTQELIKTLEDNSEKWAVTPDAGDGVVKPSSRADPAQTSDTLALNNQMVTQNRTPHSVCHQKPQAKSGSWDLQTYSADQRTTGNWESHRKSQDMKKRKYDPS

[4] = target: T2, Microphthalmia-associated transcription factor (Homo sapiens, UniProt O75030); experiment: reducers of TRPM1 reporter luminescence, concentration series – cell-based, SK-MEL-5, cherry-picked, set 3, MITF inhibitor project, dose response (AID 493073); assay type: functional;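 also: SK-MEL-5 melanoma cells with luciferase driven by the MITF target TRPM1 promoter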
T2 sequence (O75030 whole entry): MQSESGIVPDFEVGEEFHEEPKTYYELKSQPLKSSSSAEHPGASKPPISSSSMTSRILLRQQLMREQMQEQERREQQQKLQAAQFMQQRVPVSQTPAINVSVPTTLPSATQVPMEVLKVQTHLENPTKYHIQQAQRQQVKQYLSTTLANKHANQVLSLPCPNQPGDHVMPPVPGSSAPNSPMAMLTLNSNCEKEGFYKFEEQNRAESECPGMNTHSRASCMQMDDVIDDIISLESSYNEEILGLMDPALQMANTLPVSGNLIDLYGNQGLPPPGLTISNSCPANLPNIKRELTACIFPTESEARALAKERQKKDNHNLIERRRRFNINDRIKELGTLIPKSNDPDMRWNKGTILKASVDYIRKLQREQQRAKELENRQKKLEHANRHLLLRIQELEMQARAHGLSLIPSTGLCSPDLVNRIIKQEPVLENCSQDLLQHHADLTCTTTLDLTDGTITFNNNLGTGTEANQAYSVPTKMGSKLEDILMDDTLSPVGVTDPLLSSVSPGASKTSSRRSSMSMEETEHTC

[5] = Vero E6 cell cytotoxicity, dose response, cytotoxicity control for non-replicating M. tuberculosis project, secondary assay (AID 492998); assay type: functional, VeroE6; conditions: Vero C1008
[6] = viability of PTEN-deleted HCT116 cells – cell-based, HCT116 PTEN knockout, dose response (AID 1047); assay type: functional;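 also: HCT116 colon tumor cells with PTEN knocked out; cells exposed to compound for 60 hours before readout; potency for loss of cell viability measured by luminescence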
Nonstructural protein 1 = Nonstructural protein 1 (Influenza A virus, UniProt Q194T2); assay type: functional, Influenza A virus (A/California/07/2009(H1N1))
[7] = microbe, parasite or virus in culture; assay type: functional; conditions: Mycobacterium tuberculosis
[8] = Luminescence Cell-Based Dose Retest to Confirm Inhibitors of Cancer Stem Cells. [Related pubchem assays (depositor defined):AID2717, AID2721]; assay type: functional, Homo sapiens; conditions: Homo sapiens
[9] = THP-1 cell cytotoxicity, dose response, cytotoxicity control for non-replicating M. tuberculosis project (AID 489025); assay type: functional
[10] = target: T3, Endoribonuclease toxin MazF (Escherichia coli K-12, UniProt P0AE70); experiment: substrate-only fluorescence increase artefacts – biochemical, single-stranded RNase substrate, counter-screen for MazEF activator project, dose response (AID 588502); assay type: functional
[11] = target: T4, Sentrin-specific protease 1 (Homo sapiens, UniProt Q9P0U3); experiment: SENP1 catalytic domain blockers, concentration series – biochemical, kinetic FRET, dose response (AID 651697); assay type: functional; conditions: read-out: IC50_Mean
[12] = target: T4, Sentrin-specific protease 1; experiment: Dose response confirmation of small molecule inhibitors of the catalytic domain of the SUMO protease, SENP1 in a FRET assay.; assay type: functional; conditions: read-out: IC50_Mean
[13] = target: T3, Endoribonuclease toxin MazF; experiment: activation of MazEF endoribonuclease cleavage – biochemical, fluorescence, single-stranded RNA substrate, uHTS hits, dose response (AID 588481); assay type: functional
Streptococcus = experiment: GAS UMAA2166 growth inhibition – luminescence, BacTiterGlo, counter-screen for streptokinase expression inhibitor project, dose response (AID 1915); assay type: functional, organism-based;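 also: potency for reduction of bacterial viability or growth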
[14] = target: Dual specificity tyrosine-phosphorylation-regulated kinase 1A (Rattus norvegicus, UniProt Q63470); assay type: biochemical, Homo sapiens
[15] = tested on: Streptococcus sp. 'group A'; experiment: Streptococcus pyogenes SK(-)GAS viability under kanamycin – luminescence, BacTiterGlo, confirmation, counter-screen for streptokinase expression inhibitor project, dose response (AID 1900); assay type: functional, organism-based
Streptokinase A = target: T5, Streptokinase A (Streptococcus pyogenes serotype M1, UniProt P10520); experiment: viability-normalized secreted streptokinase activity reduction – plasminogen activation absorbance, OD405, dose response (AID 1914); assay type: functional, Streptococcus pyogenes M1 GAS;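 also: secreted streptokinase activity via plasminogen activation per viability signal from cell pellet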
T5 sequence (P10520 whole entry): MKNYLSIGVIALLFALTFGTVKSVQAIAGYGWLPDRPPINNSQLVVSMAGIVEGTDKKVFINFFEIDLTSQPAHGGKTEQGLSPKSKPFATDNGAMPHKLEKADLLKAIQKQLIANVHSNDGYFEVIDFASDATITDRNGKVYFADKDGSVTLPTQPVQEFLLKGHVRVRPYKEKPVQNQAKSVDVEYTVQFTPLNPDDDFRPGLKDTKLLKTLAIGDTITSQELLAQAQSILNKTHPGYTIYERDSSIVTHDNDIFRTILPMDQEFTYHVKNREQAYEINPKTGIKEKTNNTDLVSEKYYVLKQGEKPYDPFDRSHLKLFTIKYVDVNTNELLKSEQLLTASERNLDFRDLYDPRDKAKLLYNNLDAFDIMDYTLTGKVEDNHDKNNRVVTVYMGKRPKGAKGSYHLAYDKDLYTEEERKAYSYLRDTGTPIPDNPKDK

Phospholipase D1 = Phospholipase D1 (Homo sapiens, UniProt Q13393); experiment: cellular phospholipase D1 inhibition IC50 – cell-based, dose response (AID 602151); assay type: functional;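 also: cellular PLD1 assay in Calu-1 cells stimulated with PMA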
Phospholipase D2 = Phospholipase D2 (Homo sapiens, UniProt O14939); experiment: cellular phospholipase D2 inhibition IC50 – cell-based, dose response (AID 602147); assay type: functional;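 also: cellular assay in HEK293 cells overexpressing GFP-tagged PLD2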
[16] = target: Voltage-gated inwardly rectifying potassium channel KCNH2 (Homo sapiens, UniProt Q12809); conditions: Potency;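 also: confirmatory quantitative high-throughput screen measuring inhibition of hERG channel activity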
HeLa = experiment: ATP-based viability loss in HeLa cells – cell-based, CellTiter-Glo luminescence, cherry-pick samples, cytotoxicity control for MITF activator project, dose response (AID 540259); assay type: functional; conditions: Homo sapiens
[17] = target: Beta-adrenergic receptor kinase 1 (Homo sapiens, UniProt P25098); experiment: aptamer displacement from bead-bound GRK2 – biochemical, cherry pick 1, bead flow cytometry, dose response (AID 504500)
Genome polyprotein = Genome polyprotein (dengue virus type 2, UniProt P29990); experiment: flavivirus cap methylation enzyme inhibition – biochemical, confirmation dose response, primary screen (AID 588689); assay type: functional
[18] = target: Intestinal-type alkaline phosphatase (Homo sapiens, UniProt P09923); experiment: inhibition of human intestinal alkaline phosphatase – biochemical, dose response (AID 488876); assay type: functional
Large T antigen = Large T antigen (Simian virus 40, UniProt P03070); assay type: functional, Betapolyomavirus macacae;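 also: Confirmatory-stage PubChem screen for compounds that inhibit SV40 T antigen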
NS3 = NS3 (Hepatitis C virus, UniProt A3EZJ3); experiment: PubChem AID 2173; design: species or system Hepacivirus hominis
[19] = target: T6, RNA-binding protein pos-1 (Caenorhabditis elegans, UniProt G5EF15); experiment: disruptors of C. elegans POS-1 RNA interaction – biochemical, fluorescence polarization, dose response (AID 1964);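 also: purified POS-1 fused to maltose binding protein made in E. coli; potency of compounds blocking POS-1 binding to fluorescent RNA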
T6 sequence (G5EF15 whole entry): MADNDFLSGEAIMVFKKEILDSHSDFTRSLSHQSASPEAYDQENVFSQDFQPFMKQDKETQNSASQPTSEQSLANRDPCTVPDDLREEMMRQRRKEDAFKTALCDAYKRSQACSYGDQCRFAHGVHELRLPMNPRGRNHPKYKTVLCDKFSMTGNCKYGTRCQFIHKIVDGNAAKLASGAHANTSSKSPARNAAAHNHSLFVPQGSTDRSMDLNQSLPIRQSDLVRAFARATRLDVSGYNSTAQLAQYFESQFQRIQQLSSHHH

[20] = target: T7, Alkaline phosphatase, tissue-nonspecific isozyme (Homo sapiens, UniProt P05186); experiment: TNAP enzyme inhibition by screening hits, dose response, selectivity assay for mouse IAP inhibitor project, biochemical, human TNAP, uHTS hits (AID 488906); assay type: functional
T7 sequence (P05186 whole entry): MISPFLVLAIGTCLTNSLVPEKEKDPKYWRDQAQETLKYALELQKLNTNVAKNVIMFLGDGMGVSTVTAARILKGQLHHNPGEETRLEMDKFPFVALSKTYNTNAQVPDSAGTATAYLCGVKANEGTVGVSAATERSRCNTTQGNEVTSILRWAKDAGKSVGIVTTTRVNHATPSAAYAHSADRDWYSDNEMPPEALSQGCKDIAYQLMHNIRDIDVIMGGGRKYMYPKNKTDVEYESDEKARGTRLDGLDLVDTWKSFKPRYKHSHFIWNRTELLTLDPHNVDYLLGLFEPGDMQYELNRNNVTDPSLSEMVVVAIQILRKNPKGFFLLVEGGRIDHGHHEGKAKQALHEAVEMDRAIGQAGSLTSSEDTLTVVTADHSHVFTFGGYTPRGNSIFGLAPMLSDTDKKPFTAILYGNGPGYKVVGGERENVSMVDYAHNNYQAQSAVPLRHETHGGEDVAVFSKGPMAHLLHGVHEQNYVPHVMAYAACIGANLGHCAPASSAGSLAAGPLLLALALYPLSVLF

[21] = target: Envelope glycoprotein gp160 (Human immunodeficiency virus 1, UniProt Q6QLK5); experiment: cell-free HIV fusion peptide-binding blockers – biochemical, uHTS, fluorescence dequenching, […] (AID 1986)
[22] = target: Intestinal-type alkaline phosphatase (Mus musculus, UniProt P24822); experiment: PubChem AID 488785; assay type: functional
Chain of Intestinal-type alkaline phosphatase (Mus musculus, UniProt P24822) (P24822 whole entry): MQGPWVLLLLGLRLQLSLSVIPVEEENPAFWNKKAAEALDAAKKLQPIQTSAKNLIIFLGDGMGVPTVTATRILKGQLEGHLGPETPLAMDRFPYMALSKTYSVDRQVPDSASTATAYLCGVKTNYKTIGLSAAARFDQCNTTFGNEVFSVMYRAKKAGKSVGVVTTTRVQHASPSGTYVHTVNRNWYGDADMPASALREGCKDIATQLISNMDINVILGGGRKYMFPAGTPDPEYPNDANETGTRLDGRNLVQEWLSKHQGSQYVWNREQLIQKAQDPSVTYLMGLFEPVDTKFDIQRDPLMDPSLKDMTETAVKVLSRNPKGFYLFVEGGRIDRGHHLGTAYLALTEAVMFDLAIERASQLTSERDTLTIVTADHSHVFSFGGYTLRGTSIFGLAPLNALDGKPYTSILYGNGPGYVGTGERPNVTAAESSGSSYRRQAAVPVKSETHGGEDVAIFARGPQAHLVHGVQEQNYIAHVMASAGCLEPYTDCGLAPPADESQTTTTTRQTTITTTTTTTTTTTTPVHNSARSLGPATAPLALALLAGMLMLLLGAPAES

T3 sequence (P0AE70 whole entry, the tested form may be a part): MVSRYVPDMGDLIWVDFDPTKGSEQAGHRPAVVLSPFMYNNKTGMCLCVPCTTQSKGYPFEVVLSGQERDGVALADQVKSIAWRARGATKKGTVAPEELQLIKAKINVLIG
T4 sequence (Q9P0U3 whole entry, the tested form may be a part): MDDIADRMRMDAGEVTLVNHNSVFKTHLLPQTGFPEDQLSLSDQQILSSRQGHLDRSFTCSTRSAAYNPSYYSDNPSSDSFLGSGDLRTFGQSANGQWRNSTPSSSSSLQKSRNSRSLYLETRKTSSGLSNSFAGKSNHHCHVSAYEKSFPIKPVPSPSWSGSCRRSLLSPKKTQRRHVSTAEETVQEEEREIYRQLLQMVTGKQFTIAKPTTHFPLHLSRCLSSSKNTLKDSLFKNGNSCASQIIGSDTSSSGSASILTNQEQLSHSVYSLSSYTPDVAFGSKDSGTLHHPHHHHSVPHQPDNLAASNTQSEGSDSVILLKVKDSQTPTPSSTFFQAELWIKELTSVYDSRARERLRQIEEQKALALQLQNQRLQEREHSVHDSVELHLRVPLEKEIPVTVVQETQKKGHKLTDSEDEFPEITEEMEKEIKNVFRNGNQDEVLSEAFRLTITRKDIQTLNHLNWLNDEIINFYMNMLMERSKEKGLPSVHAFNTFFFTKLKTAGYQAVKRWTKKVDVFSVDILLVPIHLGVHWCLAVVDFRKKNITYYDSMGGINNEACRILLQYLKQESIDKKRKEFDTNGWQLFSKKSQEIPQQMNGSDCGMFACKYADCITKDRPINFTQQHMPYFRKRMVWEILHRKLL
Chain of Intestinal-type alkaline phosphatase (Homo sapiens, UniProt P09923) (P09923 whole entry): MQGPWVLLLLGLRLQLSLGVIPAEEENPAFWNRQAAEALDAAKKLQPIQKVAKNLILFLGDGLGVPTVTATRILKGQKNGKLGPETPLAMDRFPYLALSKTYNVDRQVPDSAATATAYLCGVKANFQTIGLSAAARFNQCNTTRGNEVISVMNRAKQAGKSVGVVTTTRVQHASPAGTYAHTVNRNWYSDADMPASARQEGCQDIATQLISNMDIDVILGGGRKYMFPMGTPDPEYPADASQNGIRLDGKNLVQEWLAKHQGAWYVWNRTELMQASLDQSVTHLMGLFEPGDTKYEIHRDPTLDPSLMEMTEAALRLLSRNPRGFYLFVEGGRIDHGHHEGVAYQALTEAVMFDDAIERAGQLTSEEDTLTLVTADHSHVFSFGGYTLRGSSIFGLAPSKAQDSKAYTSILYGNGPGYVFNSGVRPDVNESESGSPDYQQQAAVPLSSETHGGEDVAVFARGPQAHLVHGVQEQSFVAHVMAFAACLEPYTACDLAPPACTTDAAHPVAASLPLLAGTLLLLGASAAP
Chain of Nonstructural protein 1 (Q194T2 whole entry): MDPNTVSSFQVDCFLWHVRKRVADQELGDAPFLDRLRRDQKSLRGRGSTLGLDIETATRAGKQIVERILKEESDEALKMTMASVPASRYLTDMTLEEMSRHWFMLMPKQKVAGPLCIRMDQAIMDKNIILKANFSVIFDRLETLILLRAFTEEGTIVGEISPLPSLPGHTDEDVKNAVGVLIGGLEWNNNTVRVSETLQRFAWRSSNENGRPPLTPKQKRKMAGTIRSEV
Chain of Envelope glycoprotein gp160 (Q6QLK5 whole entry, the tested form may be a part): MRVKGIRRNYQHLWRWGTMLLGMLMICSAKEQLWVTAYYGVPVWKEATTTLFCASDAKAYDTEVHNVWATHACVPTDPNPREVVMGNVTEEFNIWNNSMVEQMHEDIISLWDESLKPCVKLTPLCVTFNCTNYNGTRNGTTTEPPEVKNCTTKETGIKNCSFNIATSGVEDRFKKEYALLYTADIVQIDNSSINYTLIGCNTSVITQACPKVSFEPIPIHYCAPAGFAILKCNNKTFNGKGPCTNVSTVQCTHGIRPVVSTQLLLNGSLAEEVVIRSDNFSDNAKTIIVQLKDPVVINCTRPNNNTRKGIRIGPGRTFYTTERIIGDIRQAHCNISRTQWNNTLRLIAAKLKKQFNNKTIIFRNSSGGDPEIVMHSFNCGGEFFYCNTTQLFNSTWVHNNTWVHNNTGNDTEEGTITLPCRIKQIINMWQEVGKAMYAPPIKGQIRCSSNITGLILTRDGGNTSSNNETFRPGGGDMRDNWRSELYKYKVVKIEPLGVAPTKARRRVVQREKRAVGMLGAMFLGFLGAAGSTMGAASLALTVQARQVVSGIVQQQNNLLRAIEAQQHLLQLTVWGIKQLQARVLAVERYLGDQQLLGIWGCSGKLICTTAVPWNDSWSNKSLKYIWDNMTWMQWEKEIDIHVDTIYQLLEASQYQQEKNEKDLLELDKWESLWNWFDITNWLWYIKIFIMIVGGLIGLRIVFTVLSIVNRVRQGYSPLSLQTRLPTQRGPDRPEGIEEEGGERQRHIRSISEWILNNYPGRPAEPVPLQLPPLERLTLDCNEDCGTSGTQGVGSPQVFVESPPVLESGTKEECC
Chain of Phospholipase D2 (O14939 whole entry): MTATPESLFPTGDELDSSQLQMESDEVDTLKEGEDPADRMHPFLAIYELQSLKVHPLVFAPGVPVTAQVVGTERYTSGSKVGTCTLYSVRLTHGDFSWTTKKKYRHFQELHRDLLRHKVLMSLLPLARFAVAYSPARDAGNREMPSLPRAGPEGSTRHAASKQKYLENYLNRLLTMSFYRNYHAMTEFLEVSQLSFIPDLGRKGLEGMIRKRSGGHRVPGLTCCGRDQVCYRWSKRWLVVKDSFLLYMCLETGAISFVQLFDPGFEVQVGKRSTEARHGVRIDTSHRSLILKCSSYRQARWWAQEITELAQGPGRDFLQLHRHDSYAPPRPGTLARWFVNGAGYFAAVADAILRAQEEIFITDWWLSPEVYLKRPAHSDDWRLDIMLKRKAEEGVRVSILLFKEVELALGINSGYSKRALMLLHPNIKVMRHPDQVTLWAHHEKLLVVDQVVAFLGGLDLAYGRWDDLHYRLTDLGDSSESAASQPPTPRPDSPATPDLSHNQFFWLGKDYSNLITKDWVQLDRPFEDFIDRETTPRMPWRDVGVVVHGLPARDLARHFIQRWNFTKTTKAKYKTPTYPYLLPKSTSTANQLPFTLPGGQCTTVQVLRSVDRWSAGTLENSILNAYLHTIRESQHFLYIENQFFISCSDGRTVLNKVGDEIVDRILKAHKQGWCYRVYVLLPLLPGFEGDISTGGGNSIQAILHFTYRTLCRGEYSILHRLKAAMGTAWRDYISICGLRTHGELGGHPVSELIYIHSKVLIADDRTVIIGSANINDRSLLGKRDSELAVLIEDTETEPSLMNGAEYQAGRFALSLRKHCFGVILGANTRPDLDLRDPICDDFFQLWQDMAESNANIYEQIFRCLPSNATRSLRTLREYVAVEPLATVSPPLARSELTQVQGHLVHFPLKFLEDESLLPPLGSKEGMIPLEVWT
Chain of Beta-adrenergic receptor kinase 1 (P25098 whole entry): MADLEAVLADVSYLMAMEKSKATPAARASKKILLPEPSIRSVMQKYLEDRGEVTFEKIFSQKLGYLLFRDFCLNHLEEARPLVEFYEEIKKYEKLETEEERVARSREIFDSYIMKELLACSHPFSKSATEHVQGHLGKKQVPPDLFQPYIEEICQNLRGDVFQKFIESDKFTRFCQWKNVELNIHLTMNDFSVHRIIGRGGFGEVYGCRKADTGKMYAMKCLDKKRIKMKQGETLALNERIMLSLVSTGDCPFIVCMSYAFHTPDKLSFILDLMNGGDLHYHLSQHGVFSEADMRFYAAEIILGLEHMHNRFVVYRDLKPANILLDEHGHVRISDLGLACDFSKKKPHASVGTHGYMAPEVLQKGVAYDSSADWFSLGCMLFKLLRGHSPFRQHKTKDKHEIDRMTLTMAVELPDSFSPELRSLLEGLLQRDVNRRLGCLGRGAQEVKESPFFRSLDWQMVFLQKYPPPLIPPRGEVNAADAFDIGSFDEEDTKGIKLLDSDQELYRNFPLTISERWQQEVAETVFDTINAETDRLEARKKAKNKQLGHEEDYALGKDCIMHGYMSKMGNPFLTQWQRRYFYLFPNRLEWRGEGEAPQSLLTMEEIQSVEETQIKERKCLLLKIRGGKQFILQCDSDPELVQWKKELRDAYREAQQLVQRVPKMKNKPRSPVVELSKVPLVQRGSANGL

## CCN(Cc1ccccc1)c1ccc(/C=N/N=C(N)N)cc1
[1]
  CC50: 7.93 µM (active)
A-375
  AC50: 18.4 µM (active)
[2]
  EC50: 3.35 µM (active)
cells
  IC50: 10.9 µM (active)
[3]
  AC50: 6.26 µM (active)
[4]
  AC50: 6.37 µM (active)
[5]
  CC50: 8.36 µM (active)
[6]
  EC50: 3.27 µM (active)
Nonstructural protein 1
  IC50: 39.3 µM (active)
[7]
  CC50: 9.2 µM (active)
[8]
  AC50: 2.61 µM (active)
[9]
  CC50: 7.49 µM (active)

## O=C(CCN1C(=O)/C(=C/c2cccs2)SC1=S)NNC(=O)c1cccc(O)c1
[10]
  EC50: > 99 µM (inactive)
[11]
  IC50: 16.2 µM (active)
[12]
  IC50: 21.9 µM (inactive)
[13]
  EC50: > 99 µM (inactive)

## CC1CCc2c(C(=O)Nc3cccc(-c4nn[nH]n4)c3)csc2C1 (stereo not drawn)
Streptococcus
  EC50: > 150 µM (not active)
[14]
  AC50: 8.35 µM (active)
[15]
  EC50: 127 µM (active)
Streptokinase A
  EC50: 27.3 µM (active)

## O=C(NCCN1CCC(C(=O)NCCc2ccccn2)CC1)c1ccc2ccccc2c1
Phospholipase D1
  IC50: 20 µM (active)
Phospholipase D2
  IC50: 4.2 µM (active)

## Brc1cc(Br)c(Oc2cc(Br)c(Br)cc2Br)cc1Br
[16]
  AC50: 17.8 µM (inconclusive)

## COC(=O)c1ccc(/C=N/Nc2nc(C)c(C)s2)cc1
HeLa
  AC50: 69.8 µM (active)

## COc1ccc(N2C(=O)/C(=C/c3ccco3)C(=O)NC2=S)cc1
[17]
  EC50: 7.83 µM (active)
Genome polyprotein
  IC50: > 100 µM (active)
[18]
  IC50: 46 µM (active)
Large T antigen
  IC50: 10.8 µM (active)
NS3
  IC50: 4.61 µM (active)
[19]
  EC50: 5.3 µM (active)
[20]
  IC50: 32.4 µM (active)
[21]
  IC50: 22.3 µM (active)
[22]
  IC50: 16.2 µM (active)
